Source: US10076505B2, “Inhalation formulations of Treprostinil” (priority 2003, dated 2018)

What was measured:
rat = conditions: orally, 1 mg/kg, cited from earlier work
[1] = in vivo; cited from earlier work
sheep [2] = experiment: Prolonged U44069 intravenous infusion, pulmonary vascular resistance and hemodynamics (Example II); format: in vivo
Source text: Sheep were used as the animal model of choice for these experiments for a number of reasons. First is the docile nature of sheep. They will stand quietly in metabolic cages without having to utilize tranquilizing drugs, which have the potential to complicate experimental results. Second, sheep are large enough to allow direct measurement of CO, PPA, PLA, PCV, and PSYS. Sheep are also large enough to allow direct aerosolization of substances into the lung via trachoestomy thereby preventing swallowing of drugs and thus eliminating a possible secondary route of administration of UT-15. Third, sheep can tolerate a great amount of instrumentation with little or no discomfort. Fourth, sheep have been utilized for several years as an animal model of pulmonary arterial hypertension and thus, there is a great amount of historical data with which to compare the results. The agent chosen to induce pulmonary arterial hypertension was a PGH2 analog, U44069 (9,11-dideoxy,9α,11α-epoxymethanoprostaglandin F2α). The reasons for using U44069 are that it is a very potent pulmonary vasoconstrictor, its characteristics are very similar to endogenously formed thromboxane A2, and it can be titrated to induce the desired degree of pulmonary vasoconstriction. U44069 was mixed with sterile normal saline immediately prior to being used and was protected from light by wrapping the solution with aluminum foil. The concentration of U44069 was adjusted such that a minimal flow rate of 0.8 ml per min was being infused into the sheep. This was done because more concentrated U44069 would have to be infused at very low rates and often causes “pulses” of U44069 due to the infusion characteristics of roller pumps. The U44069 pulses cause vasoconstriction “spikes” and thus would create induce a non-steady-state.
Six yearling sheep (3 males, 3 females; 21-37 kg) were fasted 18-24 hours and initially anesthetized with a short acting barbiturate (thiopental) to allow intubation of the sheep. Halothane gas anesthesia (1.5-2.5%) was then used for the surgical procedures. Via a left thoracotomy, a Transonic blood flow probe was placed around the main pulmonary artery, silastic catheters placed in the main pulmonary artery and left atrium. After approximately 7 days the sheep were reanesthetized and the left carotid artery cannulated, a Cordis Introducer Sheath inserted in the left jugular vein, and a tracheotomy made. The sheep were allowed to recover for another 3-5 days prior to experimentation. These sheep were used to allow measurement of pulmonary arterial pressure (PPA), left atrial pressure (PLA), central venous pressure (PCV), systemic arterial pressure (PSYS), heart rate (HR), and cardiac output (CO) after baseline measurements were made for a minimum of 30 minutes.
In four sheep, the ability of U44069 to maintain a steady-state increase in PVR was determined. After a 30 minute baseline, U44069 was infused at a rate of 1 microgram per kg of body weight per minute for 180 minutes. […] In particular, FIG. 9 illustrates that intravenously infused U44069 causes PVR to reach a steady-state increase by 30 minutes and that the steady-state increase lasts for a minimum of 180 minutes. U44069 caused significant alterations in other variables (data not shown) over the 180 minute infusion period relative to their baseline values: PPA increased, HR decreased, CO decreased.

sheep [3] = experiment: Intravenous and aerosolized UT-15 dose response during U44069 induced pulmonary hypertension (Example V); format: in vivo; conditions: U44069 infused intravenously at 1 ng per kg per min
Source text: Sheep were used as the animal model of choice for these experiments for a number of reasons. First is the docile nature of sheep. They will stand quietly in metabolic cages without having to utilize tranquilizing drugs, which have the potential to complicate experimental results. Second, sheep are large enough to allow direct measurement of CO, PPA, PLA, PCV, and PSYS. Sheep are also large enough to allow direct aerosolization of substances into the lung via trachoestomy thereby preventing swallowing of drugs and thus eliminating a possible secondary route of administration of UT-15. Third, sheep can tolerate a great amount of instrumentation with little or no discomfort. Fourth, sheep have been utilized for several years as an animal model of pulmonary arterial hypertension and thus, there is a great amount of historical data with which to compare the results. […] The reasons for using U44069 are that it is a very potent pulmonary vasoconstrictor, its characteristics are very similar to endogenously formed thromboxane A2, and it can be titrated to induce the desired degree of pulmonary vasoconstriction. U44069 was mixed with sterile normal saline immediately prior to being used and was protected from light by wrapping the solution with aluminum foil. The concentration of U44069 was adjusted such that a minimal flow rate of 0.8 ml per min was being infused into the sheep. This was done because more concentrated U44069 would have to be infused at very low rates and often causes “pulses” of U44069 due to the infusion characteristics of roller pumps. The U44069 pulses cause vasoconstriction “spikes” and thus would create induce a non-steady-state. Six yearling sheep (3 males, 3 females; 21-37 kg) were fasted 18-24 hours and initially anesthetized with a short acting barbiturate (thiopental) to allow intubation of the sheep. Halothane gas anesthesia (1.5-2.5%) was then used for the surgical procedures. Via a left thoracotomy, a Transonic blood flow probe was placed around the main pulmonary artery, silastic catheters placed in the main pulmonary artery and left atrium. After approximately 7 days the sheep were reanesthetized and the left carotid artery cannulated, a Cordis Introducer Sheath inserted in the left jugular vein, and a tracheotomy made. The sheep were allowed to recover for another 3-5 days prior to experimentation. These sheep were used to allow measurement of pulmonary arterial pressure (PPA), left atrial pressure (PLA), central venous pressure (PCV), systemic arterial pressure (PSYS), heart rate (HR), and cardiac output (CO) after baseline measurements were made for a minimum of 30 minutes. Two separate experiments were conducted to determine the dose response effects of intravenously infused UT-15 and aerosolized UT-15 during U44069 induced pulmonary hypertension. After a 30 minute baseline was established, U44069 was infused intravenously at a rate of 1 ng per kg per min. For the intravenous administration of UT-15 and after allowing the sheep to achieve a steady-state for 30-60 minutes, a dose-response to intravenous UT-15 was similar to that set forth in Example IV. For the aerosolized administration of UT-15 and after allowing the sheep to achieve a steady-state for 30-60 minutes, a dose-response to intravenous UT-15 was similar to that set forth in Example IV. In each experimental protocol, UT-15 was administered to three sheep for 30 minutes and to the other three sheep for 60 minutes.

[4] = U44069 iv 1 microgram per kg per minute for 180 minutes, four sheep
[5] = U44069 iv 1 microgram per kg per minute, 180 minute infusion

SMILES: CCCCC[C@H](O)CC[C@@H]1[C@H]2Cc3cccc(OCC(=O)OC)c3C[C@H]2C[C@H]1O [9-deoxy-2′,9α-methano-3-oxa-4,5,6-trinor-3,7-(1′,3′-interphenylene)-PGF1, methyl ester]
- blood pressure still lower after 52 min (rat; after 52 min): 14 mm
- lowered blood pressure (rat): 44 mmHg

SMILES: CCCCC[C@H](O)CC[C@@H]1[C@H]2Cc3cccc(OCC(=O)[O-])c3C[C@H]2C[C@H]1O.[Na+] [Treprostinil sodium]
- plasma half life [1]: more than 4 hours

SMILES: CCCCC[C@H](O)/C=C/C1C2COC(C2)C1C/C=C\CCCC(=O)O (stereo partly drawn) [U44069, 9,11-dideoxy,9α,11α-epoxymethanoprostaglandin F2α]
- duration of steady-state increase in PVR (sheep [2]; [4]): ≥ 180 min
- time for PVR to reach a steady-state increase (sheep [2]; [4]): ≤ 30 min
- cardiac output (CO) relative to baseline (sheep [2]; [5]): decreased
- heart rate (HR) relative to baseline (sheep [2]; [5]): decreased
- pulmonary arterial pressure (PPA) relative to baseline (sheep [2]; [5]): increased
- left atrial pressure (PLA) relative to baseline (sheep [2]; U44069 iv infusion, any time point): did not significantly change
- central venous pressure (PCV) relative to baseline (sheep [2]; U44069 iv infusion, significant only at 30 and 60 minutes): increased
- systemic arterial pressure (PSYS) relative to baseline (sheep [2]; U44069 iv infusion, statistically different only at 120, 150 and 180 minutes): increased above baseline values
- PPA relative to baseline (sheep [3]): significantly increased
- PVR (sheep [3]): dramatic increase
- cardiac output relative to baseline (sheep [3]): decrease
- left atrial pressure (sheep [3]): did not alter
